What was measured:
[1] = repeated application to normal skin of adults without acne; conditions: applied repeatedly to face and arm, 2 adults, several days
[2] = penetration of PG into human nails; conditions: 30 minutes after application of a thin layer to nail surface, adults
wart = conditions: conventional treatment; cited from earlier work

| SMILES | adverse reactions on normal skin [1] | absorption into nails [2] | time for wart removal process (wart) [weeks] |
| --- | --- | --- | --- |
| CC(O)CO (stereo not drawn) [100% PG, propylene glycol] | No adverse reactions were observed | virtually no PG can be found on the nail surface |  |
| O=C(O)c1ccccc1O [high strength salicylic acid, salicylic acid] |  |  | 6 to 12 |
